In patent US8680122B2, “Substituted pyrrolones as allosteric modulators of glucokinase” (Janssen Pharmacetica N.V., priority 2005, dated 2014):
“And” between values parts separate entries of the source, which are not always exact repeats. Equal entries are not always repeated.

Experiments:
Pancreas GK = target: T1, Pancreas GK (Homo sapiens, UniProt P35557); experiment: Glucokinase enzyme assay, pancreas GK; assay type: biochemical; settings: for activation at 50 µM: percentage increase in GK activity above vehicle control, compound 50 μM, 12 mM glucose; for EC50: concentration that produces 50% activation above the vehicle control; for EC100%: concentration that produces 100% activation above the vehicle control
T1 construct: (His)6; made in house; host or cells: Escherichia coli
T1 sequence (P35557 1-465): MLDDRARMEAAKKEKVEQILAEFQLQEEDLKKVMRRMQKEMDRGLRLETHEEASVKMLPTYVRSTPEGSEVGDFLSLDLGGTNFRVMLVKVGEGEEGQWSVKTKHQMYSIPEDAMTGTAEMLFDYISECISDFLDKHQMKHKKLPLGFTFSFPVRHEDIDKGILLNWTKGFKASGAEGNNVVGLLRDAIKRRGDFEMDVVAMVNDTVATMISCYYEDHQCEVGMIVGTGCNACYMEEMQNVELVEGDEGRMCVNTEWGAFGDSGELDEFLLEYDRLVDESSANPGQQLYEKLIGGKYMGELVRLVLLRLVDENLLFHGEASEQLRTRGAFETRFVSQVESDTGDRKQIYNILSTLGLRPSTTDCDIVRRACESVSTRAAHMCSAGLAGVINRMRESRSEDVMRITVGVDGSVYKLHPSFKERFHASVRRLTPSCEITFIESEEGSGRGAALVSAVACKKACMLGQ
From the text: (§1) An enzymatic Glucokinase (GK) assay using purified recombinant human liver/pancreas enzyme was used to evaluate the effects of potential small molecule modulators.
(§2) In this assay, GK catalyzes glucose phosphorylation in the presence of ATP. The product of this reaction, glucose-6-phosphate, was then oxidized by an excess of glucose-6-phosphate dehydrogenase to produce gluconate-6-phosphate with concomitant reduction of nicotinamide adenine dinucleotide (NAD). […] Human GK (Liver/Pancreas) was expressed in Escherichia coli as a (His) 6-tagged fusion protein and was purified by metal chelate affinity chromatography. The assay was performed in a final incubation volume of 80 μl in a 96-well clear low UV absorption plates. The incubation mixture consisted of 25 mM HEPES, 2 mM MgSO4, 1 mM dithiothreotol (DTT), 1 mg/mL bovine serum albumin (BSA), 1 mM ATP, 1 mM NAD, and 12 mM glucose, 10 units per mL glucose-6-phosphate dehydrogenase, and +/−300 ng per mL GK. For determination of the affinity (Km) and Vmax, different concentrations of glucose ranging from 0.5 mM to 40 mM were used in the assay; see Grimsby, J., Sarabu, R.; Grippo, J. F.; et. al. Science 2003, 301, 370-373. Production of reduced NAD (Nicotinamide Adenine Dinucleotide) was measured as changes in absorption at 340 nm in 96-well plate reader (Envision model #2101 Multilabel Plate reader). % Activation @ 50 μM was calculated as the percentage increase in GK activity above the vehicle control with the effective concentration of the compound being 50 μM. EC50% (μM) was calculated as the effective concentration of the compound that produces 50% activation above the vehicle control, and EC100% (μM) was calculated as the effective concentration of the compound that produces 100% activation above the vehicle control.

Liver GK = target: T2, Liver GK (Homo sapiens, UniProt P35557); experiment: Glucokinase enzyme assay, liver GK; assay type: biochemical; settings: for activation at 50 µM: percentage increase in GK activity above vehicle control, compound 50 μM, 12 mM glucose; for EC50: concentration that produces 50% activation above the vehicle control; for EC100%: concentration that produces 100% activation above the vehicle control
T2 construct: (His)6; made in house; host or cells: Escherichia coli
T2 sequence (P35557 1-466 isoform P35557-2): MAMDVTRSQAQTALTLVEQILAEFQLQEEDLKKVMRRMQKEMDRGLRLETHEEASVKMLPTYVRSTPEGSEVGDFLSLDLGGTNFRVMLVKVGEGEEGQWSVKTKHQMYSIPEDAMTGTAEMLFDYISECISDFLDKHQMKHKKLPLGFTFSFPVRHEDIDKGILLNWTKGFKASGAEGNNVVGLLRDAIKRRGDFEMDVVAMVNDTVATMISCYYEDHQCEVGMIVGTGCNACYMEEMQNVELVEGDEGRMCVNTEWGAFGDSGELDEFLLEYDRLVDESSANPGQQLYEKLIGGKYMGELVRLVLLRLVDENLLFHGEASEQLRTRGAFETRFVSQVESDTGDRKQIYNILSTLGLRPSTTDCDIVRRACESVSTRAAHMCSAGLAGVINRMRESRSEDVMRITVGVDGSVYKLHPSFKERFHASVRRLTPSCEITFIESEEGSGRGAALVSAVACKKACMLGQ
From the text: as §1, §2

With `COc1ccc(CN2C(=O)C(C)=C(C)[C@H]2S[C@H](C)C(=O)Nc2ccccn2)cc1` (stereo in doubt) [Compound 32, 2-[1-(4-Methoxy-benzyl)-3,4-dimethyl-5-oxo-2,5-dihydro-1H-pyrrol-2-ylsulfanyl]-N-pyridin-2-yl-propionamide] the activation at 50 µM (Pancreas GK) was 24% and the activation at 50 µM (Liver GK) was 37%.

For `COC(=O)c1ccc(NC(=O)CSC2C(C)=C(C)C(=O)N2Cc2ccc(OC)cc2)nc1` (stereo not drawn) [Compound 1, 6-{2-[1-(4-Methoxy-benzyl)-3,4-dimethyl-5-oxo-2,5-dihydro-1H-pyrrol-2-ylsulfanyl]-acetylamino}-nicotinic acid methyl ester], the EC50 (Pancreas GK) was 640 nM, the “EC100%” value (Pancreas GK) was 2.23 µM and the activation at 50 µM (Pancreas GK) was 287%. For the same compound, the EC50 (Liver GK) was 390 nM and 260 nM and the “EC100%” value (Liver GK) was 1.46 µM.

`COc1ccc(CN2C(=O)C(C)=C(C)C2SCC(=O)Nc2nccs2)cc1` (stereo not drawn) [Compound 2, 2[1-(4-Methoxy-benzyl)-3,4-dimethyl-5-oxo-2,5-dihydro-1H-pyrrol-2-ylsulfanyl]-N-thiazol-2-yl-acetamide] was tested, and the EC50 (Liver GK) was 9400 nM and the activation at 50 µM (Liver GK) was 169%.

`COc1ccc(CN2C(=O)C(c3ccccc3)=CC2SCC(=O)Nc2nccs2)cc1` (stereo not drawn) [Compound 3, 2-[1-(4-Methoxy-benzyl)-5-oxo-4-phenyl-2,5-dihydro-1H-pyrrol-2-ylsulfanyl]-N-thiazol-2-yl-acetamide] showed an activation at 50 µM (Liver GK) of 64.9%.

`COC(=O)c1ccc(NC(=O)CSC2C(c3ccccc3)=C(c3ccccc3)C(=O)N2Cc2ccc(OC)cc2)nc1` (stereo not drawn) [Compound 4] was tested, and the EC50 (Liver GK) was 19800 nM and 24500 nM and the “EC100%” value (Liver GK) was 37.3 µM and 30.4 µM.

With `COc1ccc(CN2C(=O)C(C)=C(C)C2SCC(=O)Nc2ccccn2)cc1` (stereo not drawn) [Compound 5, 2-[1-(4-Methoxy-benzyl)-3,4-dimethyl-5-oxo-2,5-dihydro-1H-pyrrol-2-ylsulfanyl]-N-pyridin-2-yl-acetamide] the EC50 (Liver GK) was 3300 nM, the “EC100%” value (Liver GK) was 8.3 µM and the activation at 50 µM (Liver GK) was 222%.

In the case of `COc1ccc(CN2C(=O)C(C)=C(C)C2SCC(=O)Nc2cnccn2)cc1` (stereo not drawn) [Compound 6, 2-[1-(4-Methoxy-benzyl)-3,4-dimethyl-5-oxo-2,5-dihydro-1H-pyrrol-2-ylsulfanyl]-N-pyrazin-2-yl-acetamide], the EC50 (Liver GK) is reported as 6300 nM, the “EC100%” value (Liver GK) is reported as 20.1 µM and the activation at 50 µM (Liver GK) is reported as 175%.

For `CCOC(=O)Cc1csc(NC(=O)CSC2C(C)=C(C)C(=O)N2Cc2ccc(OC)cc2)n1` (stereo not drawn) [Compound 7, (2-{2-[1-(4-Methoxy-benzyl)-3,4-dimethyl-5-oxo-2,5-dihydro-1H-pyrrol-2-ylsulfanyl]-acetylamino}-thiazol-4-yl)-acetic acid ethyl ester], the EC50 (Liver GK) was 11600 nM, the “EC100%” value (Liver GK) was 38.9 µM and the activation at 50 µM (Liver GK) was 114%.

For `COc1ccc(CN2C(=O)C(C)=C(C)C2SCC(=O)Nc2ccc(Cl)cn2)cc1` (stereo not drawn) [Compound 8, N-(5-Chloro-pyridin-2-yl)-2-[1-(4-methoxy-benzyl)-3,4-dimethyl-5-oxo-2,5-dihydro-1H-pyrrol-2-ylsulfanyl]-acetamide], the EC50 (Liver GK) was 2720 nM, the “EC100%” value (Liver GK) was 9.77 µM and the activation at 50 µM (Liver GK) was 169%.

In the case of `COc1ccc(CN2C(=O)C(C)=C(C)C2SCC(=O)Nc2ccc(C)cn2)cc1` (stereo not drawn) [Compound 9, 2-[1-(4-Methoxy-benzyl)-3,4-dimethyl-5-oxo-2,5-dihydro-1H-pyrrol-2-ylsulfanyl]-N-(5-methyl-pyridin-2-yl)-acetamide], the EC50 (Liver GK) is reported as 1400 nM, the “EC100%” value (Liver GK) is reported as 4.9 µM and the activation at 50 µM (Liver GK) is reported as 215%.

`COc1ccc(CN2C(=O)C(C)=C(C)C2SCC(=O)Nc2ccccn2)c(OC)c1` (stereo not drawn) [Compound 10, 2-[1-(2,4-Dimethoxy-benzyl)-3,4-dimethyl-5-oxo-2,5-dihydro-1H-pyrrol-2-ylsulfanyl]-N-pyridin-2-yl-acetamide] was tested, and the EC50 (Liver GK) was 12200 nM, the “EC100%” value (Liver GK) was 39.92 µM and the activation at 50 µM (Liver GK) was 128%.

For `COc1ccc(CN2C(=O)C(C)=C(C)C2SCC(=O)Nc2ccccn2)cc1OC` (stereo not drawn) [Compound 11, 2-[1-(3,4-Dimethoxy-benzyl)-3,4-dimethyl-5-oxo-2,5-dihydro-1H-pyrrol-2-ylsulfanyl]-N-pyridin-2-yl-acetamide], the EC50 (Liver GK) was 2410 nM, the “EC100%” value (Liver GK) was 5.83 µM and the activation at 50 µM (Liver GK) was 243%.

For `CC1=C(C)C(SCC(=O)Nc2ccccn2)N(Cc2ccc(F)cc2)C1=O` (stereo not drawn) [Compound 12, 2-[1-(4-Fluoro-benzyl)-3,4-dimethyl-5-oxo-2,5-dihydro-1H-pyrrol-2-ylsulfanyl]-N-pyridin-2-yl-acetamide], the EC50 (Liver GK) was 2900 nM, the “EC100%” value (Liver GK) was 8.72 µM and the activation at 50 µM (Liver GK) was 198%.

For `COc1ccc(CN2C(=O)C(C)=CC2SCC(=O)Nc2ccccn2)cc1` (stereo not drawn) [Compound 15, 2-[1-(4-Methoxy-benzyl)-4-methyl-5-oxo-2,5-dihydro-1H-pyrrol-2-ylsulfanyl]-N-pyridin-2-yl-acetamide], the EC50 (Liver GK) was 10000 nM, the “EC100%” value (Liver GK) was 37.08 µM and the activation at 50 µM (Liver GK) was 122%.

With `CC1=C(C)C(SCC(=O)Nc2ccccn2)N(Cc2ccc(OC(F)F)cc2)C1=O` (stereo not drawn) [Compound 16, 2-[1-(4-Difluoromethoxy-benzyl)-3,4-dimethyl-5-oxo-2,5-dihydro-1H-pyrrol-2-ylsulfanyl]-N-pyridin-2-yl-acetamide] the EC50 (Liver GK) was 6760 nM, the “EC100%” value (Liver GK) was 17.01 µM and the activation at 50 µM (Liver GK) was 166%.

For `COc1ccc(CN2C(=O)C(C)=C(C)C2SCC(=O)Nc2ccc(C(N)=O)cn2)cc1` (stereo not drawn) [Compound 18], the EC50 (Pancreas GK) was 3510 nM, the “EC100%” value (Pancreas GK) was 12.02 µM and the activation at 50 µM (Pancreas GK) was 167%. For the same compound, the EC50 (Liver GK) was 1130 nM, the “EC100%” value (Liver GK) was 3.61 µM and the activation at 50 µM (Liver GK) was 217%.

In the case of `COc1ccc(CN2C(=O)C(C)=C(C)C2SCC(=O)Nc2ccc(C(=O)O)cn2)cc1` (stereo not drawn) [Compound 33], the EC50 (Pancreas GK) is reported as 2500 nM and 1600 nM.

For `CC1=C(C)C(SCC(=O)Nc2ccccn2)N(Cc2ccc(N(C)C)cc2)C1=O` (stereo not drawn) [Compound 34, 2-[1-(4-Dimethylamino-benzyl)-3,4-dimethyl-5-oxo-2,5-dihydro-1H-pyrrol-2-ylsulfanyl]-N-pyridin-2-yl-acetamide], the EC50 (Pancreas GK) was 2500 nM, the “EC100%” value (Pancreas GK) was 12 µM and the activation at 50 µM (Pancreas GK) was 163%.

`COC(=O)c1ccc(NC(=O)CSC2C(C)=C(C)C(=O)N2Cc2ccc(F)cc2)nc1` (stereo not drawn) [Compound 35, 6-{2-[1-(4-Fluoro-benzyl)-3,4-dimethyl-5-oxo-2,5-dihydro-1H-pyrrol-2-ylsulfanyl]-acetylamino}-nicotinic acid methyl ester] was tested, and the EC50 (Pancreas GK) was 980 nM, the “EC100%” value (Pancreas GK) was 5.3 µM and the activation at 50 µM (Pancreas GK) was 156%.

With `COC(=O)c1ccc(NC(=O)CSC2C(C)=C(C)C(=O)N2Cc2ccc(OC(F)F)cc2)nc1` (stereo not drawn) [Compound 36, 6-{2-[1-(4-Difluoromethoxy-benzyl)-3,4-dimethyl-5-oxo-2,5-dihydro-1H-pyrrol-2-ylsulfanyl]-acetylamino}-nicotinic acid methyl ester] the EC50 (Pancreas GK) was 2500 nM and the “EC100%” value (Pancreas GK) was 18 µM.

With `COC(=O)c1ccc(NC(=O)CSC2C(C)=C(C)C(=O)N2Cc2ccc3c(c2)CCO3)nc1` (stereo not drawn) [Compound 37] the EC50 (Pancreas GK) was 1090 nM, the “EC100%” value (Pancreas GK) was 1.09 µM and the activation at 50 µM (Pancreas GK) was 209%.

`COC(=O)c1ccc(NC(=O)CSC2C(C)=C(C)C(=O)N2Cc2cccs2)nc1` (stereo not drawn) [Compound 38, 6-[2-(3,4-Dimethyl-5-oxo-1-thiophen-2-ylmethyl-2,5-dihydro-1H-pyrrol-2-ylsulfanyl)-acetylamino]-nicotinic acid methyl ester] was tested, and the EC50 (Pancreas GK) was 1090 nM and the “EC100%” value (Pancreas GK) was 8.9 µM.

For `COC(=O)c1ccc(NC(=O)CSC2C(C)=C(C)C(=O)N2Cc2ccc(OC)c(OC)c2)nc1` (stereo not drawn) [Compound 39], the EC50 (Pancreas GK) was 1140 nM and the “EC100%” value (Pancreas GK) was 5.3 µM.

In the case of `COC(=O)c1ccc(NC(=O)CSC2C(C)=C(C)C(=O)N2Cc2cc(OC)cc(OC)c2)nc1` (stereo not drawn) [Compound 40], the EC50 (Pancreas GK) is reported as 2300 nM and the “EC100%” value (Pancreas GK) is reported as 19 µM.
